Experimental data reported in publication PMC10321576, “Cyclic peptides target the aromatic cage of a PHD-finger reader domain to modulate epigenetic protein function” (Chemical Science, 2023).
Peptide text beside a SMILES is read from it.

Target: T1, KDM7B PHD-finger (Homo sapiens, UniProt Q9UPP1)
T1 construct: KDM7B 1-66; His-tag (C); made in house
T1 sequence (Q9UPP1 1-66 isoform Q9UPP1-2): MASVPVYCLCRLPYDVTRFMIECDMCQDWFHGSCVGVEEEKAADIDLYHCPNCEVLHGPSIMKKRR
Assay: Protein NMR 1H-15N HSQC chemical shift perturbation
Type: binding
From the text: To better elucidate OC9 interactions at a single residue level, we conducted protein NMR studies using isotopically labelled PHD-finger.[48] Comparison of ^1H–^15N HSQC spectra for isotopically labelled apo and OC9-bound protein (Fig. 4a), independently assigned using ^13C,^15N 3D experiments (Fig. S21, NMR ESI ^†), identified 24 out of 66 protein residues with significant (standard deviation, s > 1) chemical shift perturbation (CSP, Δδ) of their backbone amides (Fig. 4b).
(a) ^1H–^15N HSQC of KDM7B PHD-finger in the apo (black) or bound forms with OC9 (purple, 1 : 1) or H3_1–21K4me3 (green, 3 : 1). (b) ^1H and ^15N chemical shift changes for apo vs. + OC9 were combined and weighted to give chemical shift perturbation (CSP) (Δδ) values. Standard deviation (σ) of Δδ are indicated (>1 pink, >2 purple). (c) TALOS+ predicts similar secondary structure elements in apo and OC9-bound solution protein complexes (light grey) to those found in PDB ID 3KV4 (dark grey). […] (e) Shielded ^1H-NMR signals centred around −0.5 ppm belonging to the OC9 V10 γ-methyl groups are observed in some OC9–PHD complexes, but not in apo protein, or complexes with OC9 V10A and OC9 V10DV. The V10^OC9 γ-methyl signals have NOE interactions (black semi-circles) with the W29^PHD indole, which itself is shielded upon binding of OC9 (indicated by ΔδH values).

CSP Ala2 (residue Ala2 amide 1H-15N, Free PHD vs PHD+peptide): 0.0068
CSP Ala2, OC9 vs OC9 L3A (residue Ala2 amide, PHD+OC9 vs PHD+OC9 L3A): 0.0102
CSP Ala42 (residue Ala42 amide 1H-15N, Free PHD vs PHD+peptide): 0.4335
CSP Ala42, OC9 vs OC9 L3A (residue Ala42 amide, PHD+OC9 vs PHD+OC9 L3A): 0.0214
CSP Ala43 (residue Ala43 amide 1H-15N, Free PHD vs PHD+peptide): 0.4214
CSP Ala43, OC9 vs OC9 L3A (residue Ala43 amide, PHD+OC9 vs PHD+OC9 L3A): 0.0343
CSP Arg11 (residue Arg11 amide 1H-15N, Free PHD vs PHD+peptide): 0.0169
CSP Arg11, OC9 vs OC9 L3A (residue Arg11 amide, PHD+OC9 vs PHD+OC9 L3A): 0.0087
CSP Arg18 (residue Arg18 amide 1H-15N, Free PHD vs PHD+peptide): 0.1337
CSP Arg18, OC9 vs OC9 L3A (residue Arg18 amide, PHD+OC9 vs PHD+OC9 L3A): 0.0146
CSP Arg65 (residue Arg65 amide 1H-15N, Free PHD vs PHD+peptide): 0.0010
CSP Arg65, OC9 vs OC9 L3A (residue Arg65 amide, PHD+OC9 vs PHD+OC9 L3A): 0.0115
CSP Arg66 (residue Arg66 amide 1H-15N, Free PHD vs PHD+peptide): 0.0045
CSP Arg66, OC9 vs OC9 L3A (residue Arg66 amide, PHD+OC9 vs PHD+OC9 L3A): 0.0034
CSP Asn52 (residue Asn52 amide 1H-15N, Free PHD vs PHD+peptide): 0.0619
CSP Asn52, OC9 vs OC9 L3A (residue Asn52 amide, PHD+OC9 vs PHD+OC9 L3A): 0.0178
CSP Asp15 (residue Asp15 amide 1H-15N, Free PHD vs PHD+peptide): 0.2511
CSP Asp15, OC9 vs OC9 L3A (residue Asp15 amide, PHD+OC9 vs PHD+OC9 L3A): 0.0129
CSP Asp24 (residue Asp24 amide 1H-15N, Free PHD vs PHD+peptide): 0.0765
CSP Asp24, OC9 vs OC9 L3A (residue Asp24 amide, PHD+OC9 vs PHD+OC9 L3A): 0.0087
CSP Asp28 (residue Asp28 amide 1H-15N, Free PHD vs PHD+peptide): 0.1850
CSP Asp28, OC9 vs OC9 L3A (residue Asp28 amide, PHD+OC9 vs PHD+OC9 L3A): 0.0277
CSP Asp44 (residue Asp44 amide 1H-15N, Free PHD vs PHD+peptide): 0.1299
CSP Asp44, OC9 vs OC9 L3A (residue Asp44 amide, PHD+OC9 vs PHD+OC9 L3A): 0.0065
CSP Asp46 (residue Asp46 amide 1H-15N, Free PHD vs PHD+peptide): 0.1937
CSP Asp46, OC9 vs OC9 L3A (residue Asp46 amide, PHD+OC9 vs PHD+OC9 L3A): 0.0214
CSP Cys8 (residue Cys8 amide 1H-15N, Free PHD vs PHD+peptide): 0.2230
CSP Cys8, OC9 vs OC9 L3A (residue Cys8 amide, PHD+OC9 vs PHD+OC9 L3A): 0.0115
CSP Cys10 (residue Cys10 amide 1H-15N, Free PHD vs PHD+peptide): 0.0457
CSP Cys10, OC9 vs OC9 L3A (residue Cys10 amide, PHD+OC9 vs PHD+OC9 L3A): 0.0102
CSP Cys23 (residue Cys23 amide 1H-15N, Free PHD vs PHD+peptide): 0.1510
CSP Cys23, OC9 vs OC9 L3A (residue Cys23 amide, PHD+OC9 vs PHD+OC9 L3A): 0.0210
CSP Cys26 (residue Cys26 amide 1H-15N, Free PHD vs PHD+peptide): 0.1657
CSP Cys26, OC9 vs OC9 L3A (residue Cys26 amide, PHD+OC9 vs PHD+OC9 L3A): 0.0115
CSP Cys34 (residue Cys34 amide 1H-15N, Free PHD vs PHD+peptide): 0.0274
CSP Cys34, OC9 vs OC9 L3A (residue Cys34 amide, PHD+OC9 vs PHD+OC9 L3A): 0.0065
CSP Cys50 (residue Cys50 amide 1H-15N, Free PHD vs PHD+peptide): 0.0600
CSP Cys50, OC9 vs OC9 L3A (residue Cys50 amide, PHD+OC9 vs PHD+OC9 L3A): 0.0129
CSP Cys53 (residue Cys53 amide 1H-15N, Free PHD vs PHD+peptide): 0.0573
CSP Cys53, OC9 vs OC9 L3A (residue Cys53 amide, PHD+OC9 vs PHD+OC9 L3A): 0.0065
CSP Gln27 (residue Gln27 amide 1H-15N, Free PHD vs PHD+peptide): 0.1418
CSP Gln27, OC9 vs OC9 L3A (residue Gln27 amide, PHD+OC9 vs PHD+OC9 L3A): 0.0110
CSP Glu22 (residue Glu22 amide 1H-15N, Free PHD vs PHD+peptide): 0.1432
CSP Glu22, OC9 vs OC9 L3A (residue Glu22 amide, PHD+OC9 vs PHD+OC9 L3A): 0.0223
CSP Glu38 (residue Glu38 amide 1H-15N, Free PHD vs PHD+peptide): 0.1564
CSP Glu38, OC9 vs OC9 L3A (residue Glu38 amide, PHD+OC9 vs PHD+OC9 L3A): 0.0388
CSP Glu39 (residue Glu39 amide 1H-15N, Free PHD vs PHD+peptide): 0.2246
CSP Glu39, OC9 vs OC9 L3A (residue Glu39 amide, PHD+OC9 vs PHD+OC9 L3A): 0.0231
CSP Glu40 (residue Glu40 amide 1H-15N, Free PHD vs PHD+peptide): 0.1065
CSP Glu40, OC9 vs OC9 L3A (residue Glu40 amide, PHD+OC9 vs PHD+OC9 L3A): 0.0110
CSP Glu54 (residue Glu54 amide 1H-15N, Free PHD vs PHD+peptide): 0.0548
CSP Glu54, OC9 vs OC9 L3A (residue Glu54 amide, PHD+OC9 vs PHD+OC9 L3A): 0.0034
CSP Gly32 (residue Gly32 amide 1H-15N, Free PHD vs PHD+peptide): 0.1585
CSP Gly32, OC9 vs OC9 L3A (residue Gly32 amide, PHD+OC9 vs PHD+OC9 L3A): 0.0220
CSP Gly36 (residue Gly36 amide 1H-15N, Free PHD vs PHD+peptide): 0.1019
CSP Gly36, OC9 vs OC9 L3A (residue Gly36 amide, PHD+OC9 vs PHD+OC9 L3A): 0.0055
CSP Gly58 (residue Gly58 amide 1H-15N, Free PHD vs PHD+peptide): 0.0491
CSP Gly58, OC9 vs OC9 L3A (residue Gly58 amide, PHD+OC9 vs PHD+OC9 L3A): 0.0055
CSP His31 (residue His31 amide 1H-15N, Free PHD vs PHD+peptide): 0.2104
CSP His31, OC9 vs OC9 L3A (residue His31 amide, PHD+OC9 vs PHD+OC9 L3A): 0.0065
CSP His49 (residue His49 amide 1H-15N, Free PHD vs PHD+peptide): 0.0983
SMILES: CC(C)[C@@H]1NC(=O)[C@H](CO)NC(=O)[C@@H]2CCCN2C(=O)[C@H](Cc2ccc(O)cc2)NC(=O)[C@@H]2CCCN2C(=O)[C@H](Cc2c[nH]cn2)NC(=O)[C@H]([C@@H](C)O)NC(=O)[C@H](C)NC(=O)[C@H](Cc2ccc(O)cc2)NC(=O)[C@H](Cc2ccc(O)cc2)NC(=O)CSC[C@@H](C(N)=O)NC(=O)[C@H]([C@@H](C)O)NC(=O)[C@H](CCCNC(=N)N)NC(=O)[C@H](Cc2ccccc2)NC1=O [L3A] (HELM PEPTIDE1{[O=C(C[*:3])[*:2]].Y.Y.A.T.H.P.Y.P.S.V.F.R.T.C.[am]}$PEPTIDE1,PEPTIDE1,1:R3-15:R3$$$V2.0; C-terminus assumed)
